From paper PMC3228873 (Journal of medicinal chemistry, 2011) come the findings set out here.

Molecules are shown by their SMILES. Where only a bound is given, the exact number is not on record here.

One may read the IC50 as the concentration that inhibits the measured activity by half. In general, inhibition refers to the share of the control response that was lost under treatment.

Test [1] concerns the target TbrPDEB1 (Trypanosoma brucei, UniProt Q8WQX9). Nature of the test: TbrPDE assay, recombinant TbrPDEB1 catalytic domain. Type of test: biochemical. Conditions: for IC50: read-out: TbrPDEB1 IC50, Table 1, 10% DMSO, 25 μM cAMP, ">> x μM" if <25% inh at x μM, "> x μM" if 25-50% inh at x μM; for activity against TbrPDEB1 (in words): benchmark screening; for inhibition at 100 µM / inhibition at 10 µM: read-out: inhibition of TbrPDEB1.

Test [2] addresses TbrPDEB2 (Trypanosoma brucei brucei, UniProt Q38F42). Nature of the test: TbrPDE assay, recombinant TbrPDEB2 catalytic domain. Type of test: biochemical.
For test [3], the system named is Bloodstream forms of Trypanosoma brucei brucei strain 427. In words: Trypanosome cell culture assay. Type of test: cell-based.

For `CS(=O)(=O)Oc1ccc2c(NC(N)=O)c(C(=O)c3ccc(Cl)cc3Cl)oc2c1` [BAY 19-8004], the half-maximal inhibitory concentration (IC50) in test [1] is more than 10 µM; in test [2] (read-out: TbrPDEB2 IC50, Table 1, 10% DMSO, 25 μM cAMP, ">> x μM" if <25% inh at x μM, "> x μM" if 25-50% inh at x μM), more than 10 µM. Turning to `COc1ccc(C(=O)Nc2c(Cl)cncc2Cl)cc1OC1CCCC1` [Compound 1, piclamilast], in test [1] (single concentration, not stated for this compound), the “inhibition of TbrPDEB1” value was “over 50%”. For `COc1cc(C(=O)Nc2c(Cl)cncc2Cl)cc(OC)c1OC` [Compound 9, N-(3,5-dichloropyridin-4-yl)-3,4,5-trimethoxybenzamide], the “activity against TbrPDEB1 (in words)” value in test [1] is reported as “without TbrPDEB1 or B2 activity”. Also, in test [2], the “activity against TbrPDEB2 (in words)” value is “without TbrPDEB1 or B2 activity”. In addition, in test [3], the “cellular (trypanocidal) activity (in words)” value is recorded as “did not show cellular activity”.

Regarding `OCCN(CCO)c1nc(N2CCCCC2)c2nc(N(CCO)CCO)nc(N3CCCCC3)c2n1` [Dipyridamole (3), dipyridamole], in test [1], the inhibition at 100 µM was more than 50%. As for `COc1cccc(Nc2c(C(N)=O)cnc3c(C)cc(S(=O)(=O)c4cccc(C(=O)N(C)C)c4)cc23)c1` [GSK-256066, (5)], the inhibition at 10 µM in test [1] is not below 50%. Still for that read-out and setting: the result for `Cc1noc(/C(=C/c2cccc(-c3cc(C(C)(C)S(C)(=O)=O)cc4cccnc34)c2)c2ccc(S(C)(=O)=O)cc2)n1` [L-454560 (4)] reads not below 50%. For `CCCCOc1cc(CC2CNC(=O)N2)ccc1OC` (stereo not shown) [RO 20-1724], in test [1], the IC50 is more than 100 µM. Take `O=C(Nc1c(Cl)cncc1Cl)c1ccc(OC(F)F)c(OCC2CC2)c1` [Roflumilast (6), roflumilast]: the “activity against TbrPDEB1 (in words)” value in test [1] was “essentially inactive”.

Take `COc1ccc(C2CNC(=O)C2)cc1OC1CCCC1` (stereo not shown) [Rolipram (7), rolipram]: in test [1], the “activity against TbrPDEB1 (in words)” value was “essentially inactive”. As to `COc1cc2c(cc1OC)-c1c/c(=N\c3c(C)cc(C)cc3C)n(C)c(=O)n1CC2` [Trequinsin (2), trequinsin], the inhibition at 100 µM in test [1] was more than 50%.
